According to patent US8546389B2 (priority 2010, dated 2013):
pEC50, pIC50: −log10 of the molar value.

Tests used:
[1] = test system: genotype 1b (Con 1) subgenomic replicon cell line; experiment: HCV replicon assay, genotype 1b (Renilla luciferase); assay type: cell-based, HCV genotype 1b (Con 1); settings: Hepatitis C virus; genotype 1b replicon, 72 hours, luciferase; read-out: genotype 1b EC50 (range class)
Method in brief: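 Subgenomic replicon cells expressing Renilla luciferase (1b Con1; 1a and 2a lines by the same method) seeded at 7000 cells/well (5000 for 2a) without G418, exposed to 3-fold compound dilutions for 72 h at 37 °C. Luciferase activity measured; EC50 by non-linear regression.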

1b (BK) NS5bΔ21 = 1b (BK) NS5bΔ21 (Hepatitis C virus genotype 1b (isolate BK) (HCV), UniProt P26663); experiment: HCV polymerase inhibition assay, genotype 1b; assay type: biochemical, HCV genotype 1b (BK); settings: 1b (BK) NS5bΔ21, 33P-GTP incorporation; read-out: 1b polymerase IC50 (range class)
Sequence of 1b (BK) NS5bΔ21 (P26663 2420-2989): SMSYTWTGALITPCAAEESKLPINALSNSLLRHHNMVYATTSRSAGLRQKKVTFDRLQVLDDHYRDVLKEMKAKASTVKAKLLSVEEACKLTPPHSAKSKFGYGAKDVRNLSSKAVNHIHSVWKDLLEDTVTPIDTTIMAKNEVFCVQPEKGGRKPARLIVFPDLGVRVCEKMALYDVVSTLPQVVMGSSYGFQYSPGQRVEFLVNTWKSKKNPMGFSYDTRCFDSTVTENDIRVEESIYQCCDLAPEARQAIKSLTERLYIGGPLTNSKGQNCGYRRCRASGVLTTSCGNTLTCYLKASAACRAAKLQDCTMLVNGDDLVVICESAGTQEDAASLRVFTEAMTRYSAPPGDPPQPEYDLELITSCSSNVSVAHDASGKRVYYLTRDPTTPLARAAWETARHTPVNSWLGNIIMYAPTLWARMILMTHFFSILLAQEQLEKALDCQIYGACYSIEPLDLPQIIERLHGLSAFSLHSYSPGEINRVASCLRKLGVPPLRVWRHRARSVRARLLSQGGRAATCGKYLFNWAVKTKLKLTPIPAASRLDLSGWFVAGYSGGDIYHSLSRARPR
Method in brief: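 Both genotype 1b and 3a enzymes assayed identically: ^33P-GTP incorporation on poly(rC) template, GTP at Km, 50 nM NS5bΔ21, pH 7.5 Tris with 5 mM MgCl2 and MnCl2, 1 h reaction ended by cold EDTA. Filter-bound label counted; IC50 fitted by non-linear regression across three-fold dilution series.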

Row | Structure (SMILES) | pEC50 [1] | pIC50 (1b (BK) NS5bΔ21)
1 | CNC(=O)c1c2cc(C3CC3)c(N(CCCN(C)S(C)(=O)=O)S(C)(=O)=O)cc2nn1-c1ccc(Br)cc1 [Compound 135] | > 6.00 | > 6.00
2 | CCN(c1cc2nn(-c3ccc(F)cc3)c(C(=O)NC)c2cc1C1CC1)S(C)(=O)=O [Compound 138] | > 6.00 | > 6.00
3 | CCN(c1cc2nn(-c3ccc(F)cc3)c(C(=O)NC)c2cc1C)S(C)(=O)=O [Compound 139] | 4.30 to 5.00 | 5.00 to 6.00
4 | CNC(=O)c1c2cc(C3CC3)c(N(Cc3ccncc3)S(C)(=O)=O)cc2nn1-c1ccc(Br)cc1 [Compound 140] | > 6.00 | > 6.00
5 | CCOC(=O)CN(c1cc2nn(-c3ccc(Br)cc3)c(C(=O)NC)c2cc1C1CC1)S(C)(=O)=O [Compound 141] | 4.30 to 5.00 | 5.00 to 6.00
6 | CCN(c1cc2nn(-c3ccc(F)cc3)c(C(=O)NC)c2cc1C1=CCOCC1)S(C)(=O)=O [Compound 142] | 5.00 to 6.00 | 4.30 to 5.00
7 | CNC(=O)CCCN(c1cc2nn(-c3ccc(Br)cc3)c(C(=O)NC)c2cc1C1CC1)S(C)(=O)=O [Compound 143] | 5.00 to 6.00 | > 6.00
8 | CC=Cc1cc2c(C(=O)NC)n(-c3ccc(F)cc3)nc2cc1N(CC)S(C)(=O)=O [Compound 144] | 5.00 to 6.00 | 5.00 to 6.00
9 | CCCc1cc2c(C(=O)NC)n(-c3ccc(F)cc3)nc2cc1N(CC)S(C)(=O)=O [Compound 145] | 5.00 to 6.00 | 5.00 to 6.00
10 | CNC(=O)c1c2cc(C3CC3)c(N(CCCNC(=O)c3ccccc3C(=O)O)S(C)(=O)=O)cc2nn1-c1ccc(NCC(C)C)cc1 [Compound 146] | 5.00 to 6.00 | > 6.00
11 | CNC(=O)c1c2cc(C3CC3)c(N(CCCNC(=O)c3ccccc3C(=O)O)S(C)(=O)=O)cc2nn1-c1ccc(Br)cc1 [Compound 147] | 5.00 to 6.00 | > 6.00
12 | CNC(=O)CCN(c1cc2nn(-c3ccc(Br)cc3)c(C(=O)NC)c2cc1C1CC1)S(C)(=O)=O [Compound 148] | 5.00 to 6.00 | > 6.00
13 | CCN(c1cc2nn(-c3ccc(F)cc3)c(C(=O)NC)c2cc1C#CC(C)(C)O)S(C)(=O)=O [Compound 149] | 4.30 to 5.00 | > 6.00
14 | CNC(=O)c1c2cc(C3CC3)c(N(CCC(=O)NS(=O)(=O)c3ccccc3)S(C)(=O)=O)cc2nn1-c1ccc(Br)cc1 [Compound 150] | 4.30 to 5.00 | > 6.00
15 | CNC(=O)c1ccccc1C(=O)NCCCN(c1cc2nn(-c3ccc(Br)cc3)c(C(=O)NC)c2cc1C1CC1)S(C)(=O)=O [Compound 151] | 5.00 to 6.00 | > 6.00
16 | CNC(=O)CCC(=O)NCCCN(c1cc2nn(-c3ccc(Br)cc3)c(C(=O)NC)c2cc1C1CC1)S(C)(=O)=O [Compound 152] | 4.30 to 5.00 | > 6.00
17 | CNC(=O)c1c2cc(C3CC3)c(N(CCC(=O)NS(=O)(=O)c3cccs3)S(C)(=O)=O)cc2nn1-c1ccc(Br)cc1 [Compound 153] | 4.30 to 5.00 | > 6.00
18 | CNC(=O)c1c2cc(C3CC3)c(N(CCC(=O)NS(=O)(=O)c3ccc(F)cc3)S(C)(=O)=O)cc2nn1-c1ccc(Br)cc1 [Compound 154] | 4.30 to 5.00 | > 6.00
19 | CNC(=O)c1c2cc(C3CC3)c(N(CCC(=O)N(C)C)S(C)(=O)=O)cc2nn1-c1ccc(Br)cc1 [Compound 155] | 5.00 to 6.00 | > 6.00
20 | CNC(=O)c1c2cc(C3CC3)c(-c3nccn3C)cc2nn1-c1ccc(F)cc1 [Compound 157] | 4.30 to 5.00 | 5.00 to 6.00
21 | CNC(=O)c1c2cc(C3CC3)c(N(CCCNC(=O)CCOC)S(C)(=O)=O)cc2nn1-c1ccc(Br)cc1 [Compound 161] | > 6.00 | > 6.00
22 | CCNC(=O)CCN(c1cc2nn(-c3ccc(Br)cc3)c(C(=O)NC)c2cc1C1CC1)S(C)(=O)=O [Compound 162] | 5.00 to 6.00 | 5.00 to 6.00
23 | CCN(c1cc2nn(-c3ccc(F)cc3)c(C(=O)NC)c2cc1-c1csc(C)n1)S(C)(=O)=O [Compound 163] | 5.00 to 6.00 | 4.30 to 5.00
24 | CCCNC(=O)CCN(c1cc2nn(-c3ccc(Br)cc3)c(C(=O)NC)c2cc1C1CC1)S(C)(=O)=O [Compound 165] | 5.00 to 6.00 | 5.00 to 6.00
25 | CNC(=O)c1c2cc(C3CC3)c(N(CCCNC(=O)c3cn(C)cn3)S(C)(=O)=O)cc2nn1-c1ccc(Br)cc1 [Compound 167] | > 6.00 | > 6.00
26 | CNC(=O)c1c2cc(C3CC3)c(N(CCCNC(=O)c3cnoc3)S(C)(=O)=O)cc2nn1-c1ccc(Br)cc1 [Compound 168] | > 6.00 | > 6.00
27 | CNC(=O)c1c2cc(C3CC3)c(N(CCCN3C(=O)c4ccccc4C3=O)S(C)(=O)=O)cc2nn1-c1ccc(Br)cc1 [Compound 169] | > 6.00 | > 6.00

Row | Structure (SMILES) | pEC50 [1] | pIC50 (1b (BK) NS5bΔ21)
28 | CCN(c1cc2nn(-c3ccc(F)cc3)c(C(=O)NC)c2cc1OCC#N)S(C)(=O)=O [Compound 170] | > 6.00 | > 6.00
29 | CNC(=O)c1c2cc(C3CC3)c(N(CCCNC(=O)c3cnoc3C)S(C)(=O)=O)cc2nn1-c1ccc(Br)cc1 [Compound 173] | > 6.00 | > 6.00
30 | CNC(=O)c1c2cc(C3CC3)c(N(CCCNC(=O)c3ccnnc3)S(C)(=O)=O)cc2nn1-c1ccc(Br)cc1 [Compound 178] | 5.00 to 6.00 | > 6.00
31 | CNC(=O)c1c2cc(C3CC3)c(N(CCCNC(=O)c3ccco3)S(C)(=O)=O)cc2nn1-c1ccc(Br)cc1 [Compound 181] | > 6.00 | > 6.00
32 | CNC(=O)c1c2cc(C3CC3)c(N(CCCNC(=O)C3CC3)S(C)(=O)=O)cc2nn1-c1ccc(Br)cc1 [Compound 183] | > 6.00 | > 6.00
33 | CCNC(=O)CCCN(c1cc2nn(-c3ccc(Br)cc3)c(C(=O)NC)c2cc1C1CC1)S(C)(=O)=O [Compound 184] | 5.00 to 6.00 | > 6.00
34 | CNC(=O)c1c2cc(C3CC3)c(N(CCCNC(=O)CCN(C)C)S(C)(=O)=O)cc2nn1-c1ccc(Br)cc1 [Compound 185] | 5.00 to 6.00 | 5.00 to 6.00
35 | CNC(=O)c1c2cc(C3CC3)c(N(CCCNC(=O)c3ccc(N4CCOCC4)nc3)S(C)(=O)=O)cc2nn1-c1ccc(Br)cc1 [Compound 186] | > 6.00 | > 6.00
36 | CNC(=O)c1c2cc(C3CC3)c(N(CCCNC(=O)[C@H]3CCCC[C@@H]3C(=O)O)S(C)(=O)=O)cc2nn1-c1ccc(Br)cc1 [Compound 187] | 5.00 to 6.00 | > 6.00
37 | CNC(=O)c1c2cc(C3CC3)c(N(CCCNC(=O)[C@H]3CC=CC[C@H]3C(=O)O)S(C)(=O)=O)cc2nn1-c1ccc(Br)cc1 [Compound 188] | > 6.00 | > 6.00
38 | C=C(C)c1ccc(-n2nc3cc(N(CC)S(C)(=O)=O)c(C4CC4)cc3c2C(=O)NC)cc1 [Compound 192] | > 6.00 | 5.00 to 6.00
39 | CCS(=O)(=O)NC(=O)CCCN(c1cc2nn(-c3ccc(Br)cc3)c(C(=O)NC)c2cc1C1CC1)S(C)(=O)=O [Compound 193] | 5.00 to 6.00 | > 6.00
40 | CNC(=O)c1c2cc(C3CC3)c(N(CCCN3CCCC3=O)S(C)(=O)=O)cc2nn1-c1ccc(Br)cc1 [Compound 194] | > 6.00 | > 6.00
41 | CNC(=O)c1c2cc(C3CC3)c(N(CCCC(=O)NS(=O)(=O)C(F)(F)F)S(C)(=O)=O)cc2nn1-c1ccc(Br)cc1 [Compound 196] | 5.00 to 6.00 | > 6.00
42 | CNC(=O)c1c2cc(C3CC3)c(N(CCCNC(=O)c3ccccc3)S(C)(=O)=O)cc2nn1-c1ccc(Cl)cc1 [Compound 197] | > 6.00 | > 6.00
43 | CNC(=O)c1c2cc(C3CC3)c(N(CCCC(=O)NS(=O)(=O)N(C)C)S(C)(=O)=O)cc2nn1-c1ccc(Br)cc1 [Compound 198] | 5.00 to 6.00 | > 6.00
44 | CNC(=O)c1c2cc(C3CC3)c(N(CCCN(C)C)S(C)(=O)=O)cc2nn1-c1ccc(Cl)cc1 [Compound 199] | > 6.00 | 5.00 to 6.00
45 | CNC(=O)c1c2cc(C3CC3)c(N(CCCN3CCOCC3)S(C)(=O)=O)cc2nn1-c1ccc(Cl)cc1 [Compound 201] | > 6.00 | > 6.00
46 | CNC(=O)c1c2cc(C3CC3)c(N(CC3COC(C)(C)OC3)S(C)(=O)=O)cc2nn1-c1ccc(Br)cc1 [Compound 202] | > 6.00 | > 6.00
47 | CNC(=O)c1c2cc(C3CC3)c(N(CC(CO)CO)S(C)(=O)=O)cc2nn1-c1ccc(Br)cc1 [Compound 203] | 4.30 to 5.00 | 4.30 to 5.00
48 | CNC(=O)c1c2cc(C3CC3)c(N(CCCNC(=O)[C@H]3C[C@H]3C(=O)OC)S(C)(=O)=O)cc2nn1-c1ccc(Br)cc1 [Compound 204] | > 6.00 | > 6.00
49 | CNC(=O)c1c2cc(C3CC3)c(N(CCCNC(=O)[C@H]3COCCN3C)S(C)(=O)=O)cc2nn1-c1ccc(Cl)cc1 [Compound 205] | > 6.00 | > 6.00
50 | CNC(=O)c1c2cc(C3CC3)c(N(CCCO)S(C)(=O)=O)cc2nn1-c1ccc(C)c(F)c1 [Compound 206] | > 6.00 | > 6.00
51 | CNC(=O)c1c2cc(C3CC3)c(N(CCCC(=O)OC)S(C)(=O)=O)cc2nn1-c1ccc(Cl)cc1 [Compound 207] | 5.00 to 6.00 | > 6.00
52 | CNC(=O)c1c2cc(C3CC3)c(N(CCCC(=O)O)S(C)(=O)=O)cc2nn1-c1ccc(Cl)cc1 [Compound 208] | 4.30 to 5.00 | > 6.00
53 | CNC(=O)c1c2cc(C3CC3)c(N(CCCN3C(=O)[C@H]4CCCC[C@H]4C3=O)S(C)(=O)=O)cc2nn1-c1ccc(Br)cc1 [Compound 209] | > 6.00 | > 6.00
